No end group written: not given here. *: point of attachment. Octanoyl = CCCCCCCC(=O)*
Assays:
[1] = system: persistently symptomatic concussion patients; assay: Phase 2 study of OXE-103 in persistently symptomatic concussion: QOLIBRI quality of life; format: in vivo, human; details: Treated, 13 subjects
Procedure: Describe the change in quality of life between the two groups. This aim defines one of the secondary objectives. To assess this, the Quality of Life after Brain Injury scale (QOLIBRI) and a Patient Global Assessment of Status (PGAS) are administered. […] The primary objective with this aim assesses the change between days 1 and 14.
Described herein is a randomized, double-blind, placebo-controlled design where 40 subjects will be randomized to either a placebo cohort or a treatment with OXE-103 cohort. We randomize using the RedCap database. The database is set up to share randomization allocation only with the investigational pharmacy. All subjects are consented and begin the screening period within 28 days post-injury. There is a 7-day screening period prior to randomization and commencement of study treatment to allow for assessment of stability of symptom burden. This screening period must start no later than 28 days post-injury. Starting with Day 1 (end of screening period), the treatment cohort receives OXE-103 40ug/kg SC twice daily by self-injection and the placebo group receives a placebo injection SC twice daily. Study drug and placebo are maintained and dispensed by Investigational Pharmacy. Subjects receive an 8-day supply of syringes pre-loaded with OXE-103 or placebo. Each cohort receives the 2nd set of syringes with OXE-103 or placebo at the day 7 visit. No therapies other than OXE-103 are administered during the 14-day treatment period to either cohort. After completion of 14 days of either placebo or OXE-103 treatment, starting with the Day 14 visit, other medications and therapies can be initiated for either cohort as needed.
Quality of Life (AIM 2): A secondary goal is to examine change in quality of life with treatment of sub-acute concussion. Without bewing bound by theory, it is hypothesized that OXE-103 will reduce symptoms when comparing days 1 and 15 and therefore improve quality of life as assessed by 1) Quality of Life after Brain Injury scale (QOLIBRI) and 2) a PGAS.
The QOLIBRI is a 37 item instrument specifically developed to assess health-related quality of life (HRQoL) of individuals after traumatic brain injury. This is built into a RedCap Survey that will be completed online. Since it was developed for TBI as a disease or condition-specific HRQoL instrument, it is expected to be more sensitive than generic quality of life tools. The QOLIBRI was developed by an international task force in two multi-language studies involving over 2000 persons after TBI. Use of a TBI-specific assessment of HRQoL can detect the effects of interventions by measuring physical, psychological, daily life and psychosocial changes typical of TBI. An increase/decrease of 20% in QOLIBRI is judged to represent an improvement.
The QOL measures are obtained on day 1, 4, 8, 11, 15, 21, & 44. The completion of these takes an estimated 15 minutes.
(§1) A Phase 2 study of treatment of persistently symptomatic concussion patients with ghrelin (OXE-103) was undertaken at the University of Kansas Medical Center generally as described in Example 1. The interim results are reported herein (FIG. 1).
(§2) A study to treat patients with sub-acute concussion using a pharmaceutical formulation of ghrelin (OXE-103) was performed. The completed results from treatment group of 10 patients were compared to a 3 patient placebo group receiving standard of care (SoC). Additionally, two other patients are currently undergoing the treatment arm of the study at the time of the interim report. The study was performed in a randomized, double blind fashion and compared using self-report symptom scoring, quality of life questionnaires, computerized cognitive testing assessing executive function, memory and processing speed, and accelerometer-based balance scoring.
Feedback from clinicians indicated a 20% decrease in concussion symptoms would be considered clinically significant improvement. […]

[2] = system: persistently symptomatic concussion patients; assay: Phase 2 study interim analysis, efficacy endpoints overall; format: in vivo, human
Procedure: as §1, §2
Efficacy endpoints for the interim study were: PCSS—22 symptom concussion scoring scale, QOLIBRI—WHO TBI specific Quality of Life after Brain Injury, and BRAIN CHECK—digital assessment of cognition, balance, visual changes (510K FDA approved).
Feedback from clinicians indicated a 20% decrease in concussion symptoms would be considered clinically significant improvement. Graphs of QOLIBRI (FIG. 3A), PCSS—total severity score (FIG. 4A), PGAS (FIG. 5A), 4MB3S (FIG. 6A), and PCSS number of symptoms (FIG. 7A) show a black line for 20% change from baseline. The graphs in FIGS. 3A, 4A, 5A, 6A, and 7A show average scores per time point for each endpoint at days 1, 4, 8, 11, 15, 21 and 44 for both the treatment and control (SoC) arms. For PCSS, number of symptoms, PGAS, and 4MBS, a patient is considered to have responded to treatment if percent change is less than or equal to −20% compared to baseline. For QOLIBRI, a patient is considered to have responded to treatment if percent change is greater than or equal to 20% compared to baseline.

[3] = in vivo; cited from earlier work

ghrelin (GSS(Octanoyl)FLSPEHQRVQQRKESKKPPAKLQPR; UniProt Q9UBU3 24-51, looked up) [OXE-103]
20% Responders - QOLIBRI: Number of Responders ([1]; Day 1): 0
20% Responders - QOLIBRI: Responder % ([1]; Day 1): 0%
30% Responders - QOLIBRI: Number of Responders ([1]; Day 1): 0
30% Responders - QOLIBRI: Responder % ([1]; Day 1): 0%
20% Responders - QOLIBRI: Number of Responders ([1]; Day 4): 4
20% Responders - QOLIBRI: Responder % ([1]; Day 4): 31%
30% Responders - QOLIBRI: Number of Responders ([1]; Day 4): 3
30% Responders - QOLIBRI: Responder % ([1]; Day 4): 23%
20% Responders - QOLIBRI: Number of Responders ([1]; Day 8): 4
20% Responders - QOLIBRI: Responder % ([1]; Day 8): 31%
30% Responders - QOLIBRI: Number of Responders ([1]; Day 8): 4
30% Responders - QOLIBRI: Responder % ([1]; Day 8): 31%
20% Responders - QOLIBRI: Number of Responders ([1]; Day 11): 7
20% Responders - QOLIBRI: Responder % ([1]; Day 11): 54%
30% Responders - QOLIBRI: Number of Responders ([1]; Day 11): 5
30% Responders - QOLIBRI: Responder % ([1]; Day 11): 38%
20% Responders - QOLIBRI: Number of Responders ([1]; Day 15): 7
20% Responders - QOLIBRI: Responder % ([1]; Day 15): 54%
30% Responders - QOLIBRI: Number of Responders ([1]; Day 15): 5
30% Responders - QOLIBRI: Responder % ([1]; Day 15): 38%
20% Responders - QOLIBRI: Number of Responders ([1]; Day 21): 9
20% Responders - QOLIBRI: Responder % ([1]; Day 21): 69%
30% Responders - QOLIBRI: Number of Responders ([1]; Day 21): 7
30% Responders - QOLIBRI: Responder % ([1]; Day 21): 54%
20% Responders - QOLIBRI: Number of Responders ([1]; Day 44): 11
20% Responders - QOLIBRI: Responder % ([1]; Day 44): 85%
30% Responders - QOLIBRI: Number of Responders ([1]; Day 44): 10
30% Responders - QOLIBRI: Responder % ([1]; Day 44): 77%
durability of treatment effects ([2]; across study endpoints): at least 44 days
Responder Rate (RR) ([2]; both endpoints, by 40 days after start of treatment): 80%
onset of treatment effect ([2]; persistently effected population): 8 to 10 days
improvement ([2]; within 8-10 days of treatment, interim time point): greater than 20%
effects of long term use [3]: increased appetite, weight gain, and adiposity
safety in previous studies [3]: quite safe
